Measured values taken from patent US20250025445A1, “METHOD OF CARDIOPROTECTION” (Race Oncology LTD., priority 2021, published 2025).
Read-outs that look alike come from different tables or passages of the source.

What was measured:
[1] = system: H929 multiple myeloma cells; test: H929 multiple myeloma cell viability (CellTiter-Glo); format: cell-based, human; details: 72 hours, FIG. 4
Procedure: Human multiple myeloma NCI-H929 cells were cultured using RPMI-1640 growth media (Sigma-Aldrich), supplemented with 2 mM L-glutamine (Thermo Fisher Scientific), 10% (v/v) foetal calf serum (Sigma-Aldrich) and 0.05 mM 2-mercaptoethanol (Sigma-Aldrich). Briefly, 0.5×10^6 H929 were seeded and grown in Corning® T75 flasks (Sigma-Aldrich) in an incubator at 37° C. under 5% CO2 conditions. At 80-90% confluency, the cell suspension was then collected into Corning® 50 mL centrifuge tubes (Sigma-Aldrich) and centrifuged at 300×g for 10 mins at room temperature. The resulting supernatant were discarded and H929 pellet was resuspended with 5-10 mL of pre-warmed H929 growth media. Total viable cells were enumerated with Invitrogen™ Countess Cell Counter (Thermo Fisher Scientific, New South Wales, Australia) and 1×10^4 live H929 were seeded in triplicate into Corning® 96-well white polystyrene microplate (Sigma). […] The concentrations were as follows 0 nM, 15.62 nM, 62.5 nM, 250 nM, 500 nM, 1 μM, 5 μM, and 10 μM. […] Vehicle controls were incubated with media supplemented with either sterile water or DMSO. […] This was repeated at 48 hours and 72 hours. […] Both FB23/2 and brequinar (MedChemExpress) were dissolved in dimethyl sulfoxide (DMSO; […]

[2] = Doxorubicin cardiotoxicity in mice: blood tests
Text: In particular, well established cardiotoxicity markers, including left ventricular fractional shortening, heart E/A ratio, left ventricular diastolic function, left ventricular dilatation, cardiac output, plasma triglyceride levels, plasma creatine kinase-MB (CK-MB), plasma LDH (lactate dehydrogenase) and plasma brain natriuretic peptide (BNP) were monitored over a period of up to 42 days following the start of treatments delivered weekly, four times (and therefore final treatment on day 21).
Treatments were delivered to mice intravenously on days 0, 7, 14 and 21. Mice underwent echocardiography measurements at days 0, 21 and 42 to determine LVEF, FS, EDV, ESV, CO, E wave, A wave, E′, E/A, and E/E′, and blood samples were taken at days 0, 21 and 42 to assay for cardiac troponin I levels, BNP levels, CK, LDH levels and triglycerides.

[3] = system: MDA-MB-231 breast cancer cells; test: MDA-MB-231 breast cancer cell viability with Webb synergy analysis; format: cell-based, human
Procedure: Human breast cancer cell line NDA-MB-231 was cultured in a humidified chamber at 37° C. with 5% CO2 in DMEM supplemented with 10% foetal bovine serum (FBS), 2 mM L-glutamine and 2% HEPES. Cells were maintained adherent.

[4] = system: MCF7 breast cancer cells; test: MCF7 breast cancer cell viability (CellTiter-Glo); format: cell-based, human; details: 72 hours
Procedure: Human breast adenocarcinoma (MCF7) cells were purchased from In Vitro Technologies (Victoria, Australia) and cultured according to manufacturer's recommendations using MCF7 growth media, Low glucose Dulbecco's Modified Eagle's medium (DMEM; Sigma-Aldrich, Australia) supplemented with 10% (v/v) foetal calf serum (Sigma-Aldrich) and 1% (v/v) Penicillin-Streptomycin (Sigma-Aldrich). Briefly, 1×10^6 MCF7 were seeded and grown in Corning® T75 flasks (Sigma-Aldrich) in an incubator at 37° C. under 5% CO2 conditions. At 80-90% confluency, MCF7 were washed with Dulbecco's Phosphate Buffered Saline (Sigma-Aldrich) for 30s at room temperature and followed by incubation with Trypsin-EDTA (Sigma-Aldrich) for 5 mins at 37° C. under 5% CO2 conditions. Trypsin solution was then neutralised with 1:1 volume of MCF7 growth media. The cell suspensions were then collected into Corning® 50 mL centrifuge tubes (Sigma-Aldrich) and centrifuged at 300×g for 10 mins at room temperature. The resulting supernatants were discarded and MCF7 pellets were resuspended with 5-10 mL of pre-warmed MCF7 growth media. Total viable cells were enumerated with Invitrogen™ Countess Cell Counter (Thermo Fisher Scientific, New South Wales, Australia) and 9×10^4 live MCF7 were seeded in triplicate into Corning® 96-well white polystyrene microplate (Sigma).
(§1) Dox, Dauno and Epi, were dissolved in sterile water to make a stock concentration of 20 mM, respectively, while Tz was dissolved in sterile PBS to a stock concentration of 100 μM. […] The concentrations were as follows 0 nM, 15.62 nM, 62.5 nM, 250 nM, 500 nM, 1 μM, 5 μM, and 10 μM. […] Vehicle controls were incubated with media supplemented with either sterile water or DMSO. […] This was repeated at 48 hours and 72 hours. […] Both FB23/2 and brequinar (MedChemExpress) were dissolved in dimethyl sulfoxide (DMSO; Sigma-Aldrich) to make a stock concentration of 40 mM and 20 mM respectively.

[5] = system: colon 26, Lewis lung, Ridgway osteosarcoma, B16, Lieberman plasma cell, P388 or L1210 cancer cells; details: cited from earlier work
[6] = system: Primary Human Cardiac Myocytes (HCMs); test: Primary human cardiomyocyte cell viability (CellTiter-Glo); format: cell-based
Procedure: Primary Human Cardiac Myocytes (HCMs) were purchased from PromoCell® (Heidelberg, Germany) and cultured according to manufacturer's recommendations using PromoCell® Myocyte growth media (5% [v/v] foetal calf serum, 0.5 ng/ml recombinant human epidermal growth factor, 2 ng/ml recombinant human basic fibroblast growth factor, 5 μg/ml recombinant human insulin) supplemented with 1% [v/v] Penicillin-Streptomycin [Sigma-Aldrich]). Briefly, 1×10^6 HCMs were seeded and grown in Corning® T75 flasks (Sigma-Aldrich, New South Wales, Australia) in an incubator at 37° C. under 5% CO2 conditions. At 80-90% confluency, HCMs were gently detached using the DetachKit (PromoCell®), collected into Corning® 50 mL centrifuge tubes (Sigma-Aldrich), and centrifuged at 300×g for 10 mins at room temperature. The resulting supernatant were discarded and HCM pellet was resuspended with 5-10 mL of pre-warmed Myocyte Growth Medium. Total viable cells were enumerated with Invitrogen™ Countess Cell Counter (Thermo Fisher Scientific, New South Wales, Australia) and 1×10^5 live HCMs were seeded in triplicate into Corning® 96-well white polystyrene microplate (Sigma).
as §1

[7] = bisantrene 5.65 mg/kg + doxorubicin 4 mg/kg (Dox+Bis 80% of 1:2)
[8] = bisantrene 3.67 mg/kg + doxorubicin 5 mg/kg (Dox+Bis 1:1)

SMILES: C(=NNC1=NCCN1)c1c2ccccc2c(C=NNC2=NCCN2)c2ccccc12 [bisantrene, 9,10-anthracenedicarboxaldehyde bis [(4,5-dihydro-1H-imidazol-2-yl)hydrazone]]
- toxicity to H929 multiple myeloma cells ([1]; 0-5 μM bisantrene alone): concentration-dependent toxicity
- interference with toxicity of carfilzomib to H929 cells ([1]; 0-5 μM bisantrene with 1 μM carfilzomib): did not interfere with the toxicity
- plasma CK-MB levels ([2]; bisantrene 3.67 mg/kg + doxorubicin 5 mg/kg (Dox+Bis 1:1), day 21): kept CK-MB levels down at or near the vehicle-only control levels
- mitigation of doxorubicin-induced plasma triglyceride increases ([2]; bisantrene 3.67 mg/kg + doxorubicin 5 mg/kg (Dox+Bis 1:1), day 21 and day 42): significant mitigation
- mitigation of doxorubicin-induced plasma triglyceride increases [2, 7]: less effect
- plasma CK-MB levels ([2]; bisantrene 7.33 mg/kg + doxorubicin 5 mg/kg (Dox+Bis 1:2), day 21): kept CK-MB levels down at or near the vehicle-only control levels
- mitigation of doxorubicin-induced plasma triglyceride increases ([2]; bisantrene 7.33 mg/kg + doxorubicin 5 mg/kg (Dox+Bis 1:2), day 42): significant mitigation
- brain natriuretic peptide levels (mitigation of doxorubicin effects) ([2]; bisantrene 7.33 mg/kg + doxorubicin 5 mg/kg (Dox: Bis 1:2), day 42 or day 21): not significant
- plasma triglycerides ([2]; bisantrene 7.33 mg/kg alone, day 21, vs vehicle-only control): slight (but insignificant) increase
- plasma triglycerides (increase) ([2]; bisantrene 7.33 mg/kg alone, day 42, vs vehicle-only control): not at day 42
- toxic effects against MDA-MB-231 breast cancer cells ([3]; bisantrene alone, FIGS. 8 to 10): concentration-dependent toxic effects
- combined effect with carfilzomib on MDA-MB-231 cells ([3]; bisantrene with carfilzomib, Webb synergy analysis, FIG. 10C): at least additive to, if not synergistic with
- combined effect with doxorubicin on MDA-MB-231 cells ([3]; bisantrene with doxorubicin, Webb synergy analysis, FIGS. 8, 10A): at least additive to, if not synergistic with
- combined effect with epirubicin on MDA-MB-231 cells ([3]; bisantrene with epirubicin, Webb synergy analysis, FIGS. 9, 10B): at least additive to, if not synergistic with
- toxicity to MCF7 breast cancer cells ([4]; 0-10 μM bisantrene alone, FIG. 3): concentration-dependent toxicity
- interference with toxicity of carfilzomib to MCF7 cells ([4]; 0-10 μM bisantrene with 1 μM carfilzomib, FIG. 3): did not interfere with the toxicity
- combined toxicity of bisantrene with doxorubicin or carfilzomib to MCF7 cells ([4]; 0-10 μM bisantrene with 1 μM doxorubicin or 1 μM carfilzomib): additive toxicity
- interference with toxicity of doxorubicin to MCF7 cells ([4]; 0-10 μM bisantrene with 1 μM doxorubicin, FIG. 3): did not interfere with the toxicity
- effectiveness in cancer models [5]: effective
- protection of cardiomyocytes against toxicity of CFZ ([6]; 0-5 μM bisantrene with 1 μM carfilzomib, 24, 48, 72 hrs, FIG. 1): concentration-dependent protection
- protection of cardiomyocytes against toxicity of Dox ([6]; 0-5 μM bisantrene with 1 μM doxorubicin, 24, 48, 72 hrs, FIG. 1): concentration-dependent protection
- rescue of bortezomib cardiomyocyte toxicity ([6]; 1 μM bisantrene coadministered with bortezomib, 72 hours, FIG. 7): significant rescue of cardiomyocyte toxicity
- rescue of carfilzomib cardiomyocyte toxicity ([6]; 1 μM bisantrene coadministered with carfilzomib, 72 hours, FIG. 7): significant rescue of cardiomyocyte toxicity
- rescue of daunorubicin cardiotoxicity on cardiomyocytes ([6]; 1 μM bisantrene with 1 μM daunorubicin, 72 hours, FIG. 5): cardiotoxicity rescue effects
- rescue of epirubicin cardiotoxicity on cardiomyocytes ([6]; 1 μM bisantrene with 1 μM epirubicin, 72 hours, FIG. 6): a trend toward statistical significance
- effect on combined toxicity of doxorubicin and trastuzumab to cardiomyocytes ([6]; 1 or 5 μM bisantrene with 1 μM doxorubicin and 500 nM trastuzumab, FIG. 2): reduced the combined toxicity
- effect of increasing bisantrene on loss of cardiomyocyte viability with doxorubicin alone ([6]; 1 or 5 μM bisantrene with 1 μM doxorubicin, FIG. 2): reduced loss of viability
- toxicity (loss in cell viability) to cardiomyocytes ([6]; agent alone (1 μM doxorubicin, 1 μM carfilzomib, 0-5 μM bisantrene), 24 hrs, 48 hrs and 72 hrs, FIG. 1): mild progressive toxicity
- mitigation of doxorubicin cardiotoxicity: cardiac output [8]: mitigation of doxorubicin cardiotoxicity
- mitigation of doxorubicin cardiotoxicity: left ventricular diastolic function [8]: appeared to mitigate the cardiotoxic effects
- mitigation of doxorubicin cardiotoxicity: left ventricular dilatation [8]: appeared to mitigate the cardiotoxic effects
- mitigation of doxorubicin cardiotoxicity: left ventricular fractional shortening [8]: significantly mitigated
- mitigation of doxorubicin cardiotoxicity: cardiac output [7]: even less effect
- mitigation of doxorubicin cardiotoxicity: left ventricular fractional shortening [7]: less effect
- mitigation of doxorubicin cardiotoxicity: left ventricular fractional shortening (bisantrene 7.33 mg/kg + doxorubicin 5 mg/kg (Dox+Bis 1:2)): significantly mitigated
- mitigation of doxorubicin cardiotoxicity: cardiac output (bisantrene 7.33 mg/kg + doxorubicin 5 mg/kg (Dox+Bis 1:2), compared to Dox+Bis 1:1): mitigation of doxorubicin cardiotoxicity was slightly greater
- cardiac output (bisantrene 7.33 mg/kg alone): suggestion (but not significant) of mild deleterious effects
- left ventricular diastolic function (bisantrene 7.33 mg/kg alone): suggestion (but not significant) of mild deleterious effects
- left ventricular dilatation (bisantrene 7.33 mg/kg alone): suggestion (but not significant) of mild deleterious effects
- left ventricular fractional shortening (bisantrene 7.33 mg/kg alone, i.v. days 0, 7, 14, 21): suggestion (but not significant) of mild deleterious effects
